In brackets after ≈: the same amount, converted by molar mass. Where two headings read alike, the source gives them in different places.
How the values were obtained:
[1] = system: CytA; assay: Enzyme kinetics of CytA (formation of deglycosylation products, anaerobic); format: biochemical, Streptomyces sp. SCSIO 1666; settings: substrate of CytA; 0.5 μM CytA, 20 μM NADH, anaerobic
Experimental: Enzymatic reactions were carried out under anaerobic conditions in an anaerobic workstation (Don Whitley Scientific A45) containing a gas phase of N2/H2/CO2 (80:10: 10%, by vol.). ^1H, ^13C, and 2D (COSY, HMQC, HMBC and NOESY) NMR spectra were recorded at 25 °C with an Avance 700 MHz spectrometer instruments (Bruker). High-resolution mass spectra were obtained with a Maxis quadrupole-time-of-flight mass spectrometer (Bruker).
To validate the in vitro biochemical activities of CytA, we overexpressed and purified this enzyme as a soluble N-terminally His6-tagged protein from E. coli (Fig. 2a). Tris-Cl buffer was made O2 free by boiling, followed by cooling under N2 flow; NADH stock solution (dissolved in Tris-Cl), substrate stock solution (dissolved in DMSO), and enzyme solution (dissolved in Tris-Cl supplemented with 10% glycerin) were subjected to O2 eliminating process in the anaerobic workstations for at least two cycles (40 min for one cycle). CytA enzymatic activity was tested in 50 μL volume containing 50 mM Tris-Cl (pH 8.0), 25 μM substrate, 0.5 μM CytA, and 20 μM NADH, at 37 °C for 30 min. The reaction was quenched with the addition to 2 volumes MeOH. After centrifugation to remove protein, supernatants were analyzed with Agilent HPLC equipment using a Phenomenex Prodigy ODS column S5 (150 × 4.60 mm, 5 μ) and UV detection at 254 and 500 nm. Samples were eluted with a gradient elution of phase A containing 0.1% TFA in ddH2O and phase B containing 100% acetonitrile, at a flow rate of 1 mL/min.
Kinetic analyses of CytA with putative substrates 6–10, daunorubicin, doxorubicin, idarubicin, epirubicin and pirarubicin, involved a reaction volume of 20 μL consisting of 50 mM Tris-Cl (pH 8.0), 0.5 μM CytA, 20 μM NADH, […]
All assays were performed in triplicate and Km and Vmax values were calculated on the basis of curve fitting to the Michaelis-Menten equation: v = Vmax *[S]/(Km + [S]) (Supplementary Fig. 7).
For kinetics of CytA, Origin 9.0 (OriginLab Co.) was used to analyze on the basis of curve fitting to the Michaelis-Menten equation. Experiments were performed in triplicate independently. For antibacterial activity, experiments were performed in triplicate using 96-well plates.

[2] = system: B. subtilis BS01; assay: Antibacterial activity, broth dilution MIC; format: cell-based; settings: Bacillus subtilis
Experimental: (§1) The antibacterial activities of compounds 1–13 were assessed using twofold serial dilutions of antibacterial agents in MH broth, according to previously reported standard methods provided by Clinical and Laboratory Standards Institute (CLSI)[30]. These compounds were tested for their antibacterial activities against Bacillus subtilis BS01, Staphyloccocus aureus ATCC 29213, Staphyloccocus aureus 745524, Bacillus thuringiensis BT01, and Enterococcus faecalis ATCC 29212 using a broth dilution method.

[3] = system: B. thuringiensis BT01; assay: Antibacterial activity, broth dilution MIC; format: cell-based; settings: Bacillus thuringiensis
Experimental: as §1

[4] = system: E. faecalis ATCC 29212; assay: Antibacterial activity, broth dilution MIC; format: cell-based; settings: Enterococcus faecalis
Experimental: as §1

[5] = system: Staphylococcus aureus 745524; assay: Antibacterial activity, broth dilution MIC; format: cell-based
Experimental: as §1

[6] = system: Staphylococcus aureus ATCC 29213; assay: Antibacterial activity, broth dilution MIC; format: cell-based
Experimental: as §1

[7] = Cytotoxic activity, MTT method; format: cell-based; settings: human
Description: (§2) All data were obtained in triplicate and are presented as means.

[8] = system: A549 human lung cancer cell line; assay: Cytotoxic activity, MTT method; format: cell-based; settings: A549, read-out: Cytotoxic activities IC50, A549
Description: as §2

[9] = system: HeLa human cervical carcinoma cell line; assay: Cytotoxic activity, MTT method; format: cell-based; settings: read-out: Cytotoxic activities IC50, HeLa
Description: as §2

[10] = system: HepG2 human hepatocellular carcinoma cell line; assay: Cytotoxic activity, MTT method; format: cell-based; settings: HepG2, read-out: Cytotoxic activities IC50, HepG2
Description: as §2

[11] = system: MCF-7 human breast adenocarcinoma cell line; assay: Cytotoxic activity, MTT method; format: cell-based; settings: MCF7, read-out: Cytotoxic activities IC50, MCF-7
Description: as §2

[12] = system: MDA-MB-231 human triple negative breast adenocarcinoma cell line; assay: Cytotoxic activity, MTT method; format: cell-based; settings: MDA-MB-231, read-out: Cytotoxic activities IC50, MDA-MB-231
Description: as §2

[13] = system: MDA-MB-468 human triple negative breast adenocarcinoma cell line; assay: Cytotoxic activity, MTT method; format: cell-based; settings: MDA-MB-468, read-out: Cytotoxic activities IC50, MDA-MB-468
Description: as §2

[14] = system: RKO human colorectal carcinoma cell line; assay: Cytotoxic activity, MTT method; format: cell-based; settings: read-out: Cytotoxic activities IC50, RKO
Description: as §2

[15] = ATCC29212, read-out: MIC values, EF
[16] = Staphylococcus aureus, 745524, read-out: MIC values, SA2
[17] = Staphylococcus aureus, ATCC29213, read-out: MIC values, SA1
[18] = B. subtilis BS01, triplicate, read-out: MIC values, BS
[19] = B. thuringiensis BT01, triplicate, read-out: MIC values, BT
[20] = ATCC29212, E. faecalis ATCC 29212, triplicate, read-out: MIC values, EF
[21] = Staphylococcus aureus 745524, triplicate, read-out: MIC values, SA2
[22] = ATCC29213, Staphylococcus aureus ATCC 29213, triplicate, read-out: MIC values, SA1
[23] = Huvec-12 normal cell line, read-out: Cytotoxic activities IC50, Huvec-12
[24] = L02 normal cell line, read-out: Cytotoxic activities IC50, L02

Row | SMILES | Km [1] [µM] | kcat [1] [s⁻¹] | IC50 [8] [µM] | IC50 [9] [µM] | IC50 [10] [µM] | IC50 [11] [µM] | IC50 [12] [µM] | IC50 [13] [µM] | IC50 [14] [µM] | MIC [2, 18] [µg/mL] | MIC [3, 19] [µg/mL] | MIC [4, 20] [µg/mL] | MIC [5, 21] [µg/mL] | MIC [6, 22] [µg/mL] | IC50 [7, 23] [µM] | IC50 [7, 24] [µM] | further results
1 | COc1cccc2c1C(=O)c1c(O)c3c(c(O)c1C2=O)C[C@@](O)(C(C)=O)C[C@@H]3O[C@H]1C[C@H](N)[C@H](O)[C@H](C)O1 [Compound 22, daunorubicin, reference compound] | 36.3 | 0.00967 | – | – | – | – | – | – | – | – | – | – | – | – | – | – | –
2 | CN[C@H](CC(C)C)C(=O)N[C@H]1C(=O)N[C@@H](CC(N)=O)C(=O)N[C@H]2C(=O)N[C@H]3C(=O)N[C@H](C(=O)N[C@H](C(=O)O)c4cc(O)cc(O)c4-c4cc3ccc4O)[C@H](O)c3ccc(c(Cl)c3)Oc3cc2cc(c3O[C@@H]2O[C@H](CO)[C@@H](O)[C@H](O)[C@H]2O[C@H]2C[C@](C)(N)[C@H](O)[C@H](C)O2)Oc2ccc(cc2Cl)[C@H]1O [Van, Vancomycin, reference compound] | – | – | – | – | – | – | – | – | – | – | – | – | – | – | – | – | MIC ([2]; BS01, read-out: MIC values, BS): 0.5 µg/mL (≈ 0.345 µM); MIC ([3]; BT01, read-out: MIC values, BT): 0.5 µg/mL (≈ 0.345 µM); MIC [4, 15]: 0.25 µg/mL (≈ 0.173 µM); MIC [5, 16]: 1 µg/mL (≈ 0.69 µM); MIC [6, 17]: 0.5 µg/mL (≈ 0.345 µM)
3 | CC(=O)[C@]1(O)Cc2c(O)c3c(c(O)c2[C@@H](O[C@H]2C[C@H](N)[C@H](O)[C@H](C)O2)C1)C(=O)c1ccccc1C3=O [Compound 24, idarubicin, reference compound] | 28.5 | 0.00733 | – | – | – | – | – | – | – | – | – | – | – | – | – | – | –
4 | COc1cccc2c1C(=O)c1c(O)c3c(c(O)c1C2=O)C[C@@](O)(C(=O)CO)C[C@@H]3O[C@H]1C[C@H](N)[C@H](O)[C@H](C)O1 [Compound 23, doxorubicin, reference compound] | 31 | 0.0102 | 2.31 | 0.83 | 0.41 | 0.9 | 16.9 | 2.11 | 1.45 | – | – | – | – | – | – | – | IC50 ([7]; Huvec-12 normal umbilical vein endothelial cells, Huvec-12 normal cell line, read-out: Cytotoxic activities IC50, Huvec-12): 6.31 µM; IC50 ([7]; L02 normal hepatic cells, L02 normal cell line, read-out: Cytotoxic activities IC50, L02): 7.67 µM
5 | COc1cccc2c1C(=O)c1c(O)c3c(c(O)c1C2=O)C[C@@](O)(C(=O)CO)C[C@@H]3O[C@H]1C[C@H](N)[C@H](O[C@@H]2CCCCO2)[C@H](C)O1 [Compound 26, pirarubicin, reference compound] | 49.3 | 0.0123 | – | – | – | – | – | – | – | – | – | – | – | – | – | – | –
6 | CC[C@@]1(O[C@H]2C[C@H](N(C)C)[C@H](O)[C@H](C)O2)CCc2c(O)c3c(c(O)c2[C@H]1O[C@H]1C[C@H](N(C)C)[C@H](O[C@H]2C[C@H](O)[C@H](O[C@H]4CC[C@H](O)[C@H](C)O4)[C@H](C)O2)[C@H](C)O1)C(=O)c1cccc(O)c1C3=O [Compound 2, cytorhodin Y] | – | – | 7.25 | 3.25 | 6.17 | 9.89 | 17.5 | 16.4 | 11.8 | 1 (≈ 1.08 µM) | 4 (≈ 4.31 µM) | 4 (≈ 4.31 µM) | 1 (≈ 1.08 µM) | 2 (≈ 2.15 µM) | 4.71 | 4.46 | –
7 | CC[C@@]1(O)CCc2c(O)c3c(c(O)c2[C@H]1O)C(=O)c1cccc(O)c1C3=O [Compound 13] | – | – | – | – | – | – | – | – | – | > 32 | > 32 | > 32 | > 32 | > 32 | – | – | –
8 | CC[C@@]1(O)CCc2c(O)c3c(c(O)c2[C@H]1O[C@H]1C[C@H](N(C)C)[C@H](O[C@H]2CC[C@H](O[C@H]4CC[C@H](O)[C@H](C)O4)[C@H](C)O2)[C@H](C)O1)C(=O)c1cccc(O)c1C3=O [Compound 3, cosmomycin A] | – | – | 0.032 | 0.15 | 0.023 | 0.82 | 1.36 | 0.81 | 0.083 | 0.5 (≈ 0.661 µM) | 0.25 (≈ 0.331 µM) | 0.06 (≈ 0.0794 µM) | 0.125 (≈ 0.165 µM) | 0.25 (≈ 0.331 µM) | 0.31 | 0.42 | –
9 | CC[C@@]1(O[C@H]2C[C@H](N(C)C)[C@H](O)[C@H](C)O2)CCc2c(O)c3c(c(O)c2[C@H]1O[C@H]1C[C@H](N(C)C)[C@H](O[C@H]2CC[C@H](O[C@H]4CC[C@H](O)[C@H](C)O4)[C@H](C)O2)[C@H](C)O1)C(=O)c1cccc(O)c1C3=O [Compound 1, cytorhodin X] | – | – | 3.4 | 2.04 | 3.04 | 12.7 | 18.7 | 21.3 | 11.2 | – | – | – | – | – | 4.23 | 3.5 | MIC ([2]; BS01, read-out: MIC values, BS): 2 µg/mL (≈ 2.19 µM); MIC ([3]; BT01, read-out: MIC values, BT): 4 µg/mL (≈ 4.38 µM); MIC [4, 15]: 2 µg/mL (≈ 2.19 µM); MIC [5, 16]: 2 µg/mL (≈ 2.19 µM); MIC [6, 17]: 2 µg/mL (≈ 2.19 µM)
10 | CC1(C)S[C@@H]2[C@H](NC(=O)[C@H](N)c3ccccc3)C(=O)N2[C@H]1C(=O)O [Amp, Ampicillin, reference compound] | – | – | – | – | – | – | – | – | – | 4 (≈ 11.4 µM) | 4 (≈ 11.4 µM) | 2 (≈ 5.72 µM) | 8 (≈ 22.9 µM) | 4 (≈ 11.4 µM) | – | – | –
11 | CC[C@@]1(O)CCc2c(O)c3c(c(O)c2C1)C(=O)c1cccc(O)c1C3=O [Compound 12] | – | – | – | – | – | – | – | – | – | > 32 | > 32 | > 32 | > 32 | > 32 | – | – | –
12 | COc1cccc2c1C(=O)c1c(O)c3c(c(O)c1C2=O)C[C@@](O)(C(=O)CO)C[C@@H]3O[C@H]1C[C@H](N)[C@@H](O)[C@H](C)O1 [Compound 25, epirubicin, reference compound] | 38.6 | 0.00883 | – | – | – | – | – | – | – | – | – | – | – | – | – | – | –
13 | CC[C@@]1(O)CCc2c(O)c3c(c(O)c2[C@H]1O[C@H]1C[C@H](N(C)C)[C@H](O)[C@H](C)O1)C(=O)c1cccc(O)c1C3=O [Compound 5, iremycin] | – | – | 11.8 | 9.99 | 10.2 | 10.7 | 20.3 | 29.3 | 15.2 | – | – | – | – | – | 13.5 | 6.93 | MIC ([2]; BS01, read-out: MIC values, BS): 8 µg/mL (≈ 15.2 µM); MIC ([3]; BT01, read-out: MIC values, BT): 16 µg/mL (≈ 30.3 µM); MIC [4, 15]: 8 µg/mL (≈ 15.2 µM); MIC [5, 16]: 8 µg/mL (≈ 15.2 µM); MIC [6, 17]: 8 µg/mL (≈ 15.2 µM)
14 | CC[C@]1(O)Cc2c(O)c3c(c(O)c2[C@@H](O[C@H]2C[C@H](N(C)C)[C@H](O)[C@H](C)O2)C1)C(=O)c1c(O)cccc1C3=O [Compound 8, 10-decarbomethoxy-ε-rhodomycin] | 12.7 | 0.00283 | 6.24 | 1.31 | 1.99 | 21.1 | 7.65 | 16.8 | 3.28 | 8 (≈ 15.2 µM) | 8 (≈ 15.2 µM) | 4 (≈ 7.58 µM) | 8 (≈ 15.2 µM) | 4 (≈ 7.58 µM) | 6.92 | 19.8 | –
